Laboratory results: patent US12252701B2, “Chimeric antigen receptor T cell therapy” (KITE PHARMA, INC., priority 2020, dated 2025)

Experiments:
[1] = system: NALM6.GFP.LUC.CD19 target cells; assay: Serial killing assay; assay type: cell-based, human
Description: CD19 CAR-T cells were thawed in RPMI media supplemented with HEPES, Penicillin/Streptomycin/L-Glutamine and 10% FBS and rested overnight. The following day, drugs were serially diluted and prepared in 96-well plates. Rested T cells were counted and normalized so that 25,000 or 8,333 T cells were plated with 25,000 NALM6.GFP.LUC.CD19 target cells (1:1 or 1:3 Effector:Target ratio) in the prepared 96-well plates. At 16 hour post-incubation and every 3-4 days, T cell killing of targets was measured via luciferase detection. D-luciferin substrate was added to the co-culture wells at a final concentration of 0.14 mg/mL and plates were incubated at 37° C. in the dark for 10 minutes. Luminescent signal was read immediately after in a VarioSkan™ LUX microplate reader. T cell-mediated cytotoxicity was calculated as follows: % Cytotoxicity=[1−luciferase signal of (sample of interest/target alone control)]*100. Afterwards, co-cultures were stained with LIVE/DEAD and antibodies against CD4, CD8 and KIP-1 and then washed. Cells were then analyzed and quantified via the Attune NxT flow cytometer. T cells were then repeatedly stimulated with fresh 25,000 target cells, and this process was repeated every 3-4 days.

[2] = cited from earlier work
[3] = system: CAR-T cells; assay: CAR-T cell expansion assay (KIP-1 or CD3/CD28 stimulation); details: for % viabili.: CD3/CD28 stimulation; for % viabi.: KIP-1 stimulation
[4] = system: Nalm-6 luc; assay: CAR-T cell killing assay (luciferase viability of tumor cells)

Which “reduction of clinical dosing required to avoid negative impacts on product performance” value [1] does the source give for `CCS(=O)(=O)N1CC(CC#N)(n2cc(-c3ncnc4[nH]ccc34)cn2)C1` [baricitinib] here?
Its value is “roughly 4 fold”.

And the Cmax ([2]; clinical dosing 2 mg daily, cell prints (nM))?
Its Cmax is 45.7 nM.

And the Protein binding ([2]; plasma protein binding, reported)?
Its Protein binding is 50%.

And the “% viability” value ([3]; CD3/CD28, dose 5 nM, day 4)?
Its value is 72.9%.

And the “% viability” value ([3]; CD3/CD28, dose 5 nM, day 8)?
Its value is 55.7%.

What about the “% viability” value ([3]; CD3/CD28, dose 5 nM, day 12) of the same compound?
The value was 83.1%.

And the “% viability” value ([3]; CD3/CD28, dose 10 nM, day 4)?
Its value is 70.7%.

What about the “% viability” value ([3]; CD3/CD28, dose 10 nM, day 12) of the same compound?
Its value is 84.7%.

What about the “% viabili.” value ([3]; 10 nM, Day 0) of the same compound?
The value was 84%.

And the “% viabili.” value ([3]; 10 nM, Day 4)?
Its value is 82.3%.

And the “% viabili.” value ([3]; 10 nM, Day 8)?
The value was 90.2%.

And the “% viabili.” value ([3]; 10 nM, Day 12)?
Its value is 80.2%.

What about the “% viabili.” value ([3]; 20 nM, Day 0) of the same compound?
Its value is 84%.

What about the “% viabili.” value ([3]; 20 nM, Day 4) of the same compound?
Its value is 86.4%.

And the “% viabili.” value ([3]; 20 nM, Day 8)?
The value was 82.5%.

And the “% viabili.” value ([3]; 20 nM, Day 12)?
Its value is 76.7%.

And the “% viabili.” value ([3]; 40 nM, Day 0)?
Its value is 84%.

And the “% viabili.” value ([3]; 40 nM, Day 4)?
The value was 89.8%.

And the “% viabili.” value ([3]; 40 nM, Day 8)?
The value was 85.7%.

What about the “% viabili.” value ([3]; 40 nM, Day 12) of the same compound?
The value was 74.7%.

And the “% viabili.” value ([3]; 60 nM, Day 0)?
Its value is 84%.

And the “% viabili.” value ([3]; 60 nM, Day 4)?
The value was 91.7%.

And the “% viabili.” value ([3]; 60 nM, Day 8)?
Its value is 91.3%.

What about the “% viabili.” value ([3]; 60 nM, Day 12) of the same compound?
Its value is 71.5%.

And the “% viabili.” value ([3]; 80 nM, Day 0)?
The value was 84%.

What about the “% viabili.” value ([3]; 80 nM, Day 4) of the same compound?
Its value is 91.1%.

And the “% viabili.” value ([3]; 80 nM, Day 8)?
Its value is 83.6%.

And the “% viabili.” value ([3]; 80 nM, Day 12)?
Its value is 67.7%.

What about the “% viabili.” value ([3]; 100 nM, Day 0) of the same compound?
Its value is 84%.

And the “% viabili.” value ([3]; 100 nM, Day 4)?
Its value is 86.8%.

What about the “% viabili.” value ([3]; 100 nM, Day 8) of the same compound?
The value was 73.3%.

And the “% viabili.” value ([3]; 100 nM, Day 12)?
The value was 76.3%.

And the “% viability” value ([3]; KIP-1, dose 10 nM, day 8)?
The value was 58.7%.

What about the “% viabi.” value ([3]; 10 nM, Day 0) of the same compound?
The value was 84%.

What about the “% viabi.” value ([3]; 10 nM, Day 4) of the same compound?
The value was 64.7%.

What about the “% viabi.” value ([3]; 10 nM, Day 8) of the same compound?
The value was 55.2%.

What about the “% viabi.” value ([3]; 10 nM, Day 12) of the same compound?
The value was 70.4%.

What about the “% viabi.” value ([3]; 20 nM, Day 0) of the same compound?
The value was 84%.

What about the “% viabi.” value ([3]; 20 nM, Day 4) of the same compound?
The value was 61.3%.

And the “% viabi.” value ([3]; 20 nM, Day 8)?
Its value is 78%.

What about the “% viabi.” value ([3]; 20 nM, Day 12) of the same compound?
The value was 73.5%.

What about the “% viabi.” value ([3]; 40 nM, Day 0) of the same compound?
The value was 84%.

What about the “% viabi.” value ([3]; 40 nM, Day 4) of the same compound?
Its value is 65%.

And the “% viabi.” value ([3]; 40 nM, Day 8)?
Its value is 77.8%.

What about the “% viabi.” value ([3]; 40 nM, Day 12) of the same compound?
Its value is 68.8%.

And the “% viabi.” value ([3]; 60 nM, Day 0)?
Its value is 84%.

What about the “% viabi.” value ([3]; 60 nM, Day 4) of the same compound?
The value was 57.8%.

What about the “% viabi.” value ([3]; 60 nM, Day 8) of the same compound?
Its value is 57.6%.

And the “% viabi.” value ([3]; 60 nM, Day 12)?
Its value is 70.8%.

What about the “% viabi.” value ([3]; 80 nM, Day 0) of the same compound?
The value was 84%.

What about the “% viabi.” value ([3]; 80 nM, Day 4) of the same compound?
The value was 66.2%.

And the “% viabi.” value ([3]; 80 nM, Day 8)?
Its value is 69.4%.

What about the “% viabi.” value ([3]; 80 nM, Day 12) of the same compound?
The value was 69.5%.

What about the “% viabi.” value ([3]; 100 nM, Day 0) of the same compound?
The value was 84%.

What about the “% viabi.” value ([3]; 100 nM, Day 4) of the same compound?
The value was 67.7%.

And the “% viabi.” value ([3]; 100 nM, Day 8)?
The value was 78.1%.

And the “% viabi.” value ([3]; 100 nM, Day 12)?
Its value is 65.2%.

What about the “Mean tumor cell death (%)” value ([4]; E:T ratio 1:1, dose 10 nM) of the same compound?
Its value is 97.9%.

And the “Mean tumor cell death (%)” value ([4]; E:T ratio 1:1, dose 20 nM)?
The value was 97.5%.

What about the “Mean tumor cell death (%)” value ([4]; E:T ratio 1:1, dose 40 nM) of the same compound?
The value was 85.7%.

What about the “Mean tumor cell death (%)” value ([4]; E:T ratio 1:1, dose 60 nM) of the same compound?
The value was 96.2%.

What about the “Mean tumor cell death (%)” value ([4]; E:T ratio 1:1, dose 80 nM) of the same compound?
The value was 96%.

What about the “Mean tumor cell death (%)” value ([4]; E:T ratio 1:1, dose 100 nM) of the same compound?
The value was 93.1%.

And the “Mean tumor cell death (%)” value ([4]; E:T ratio 1:3, dose 10 nM)?
Its value is 65.6%.

And the “Mean tumor cell death (%)” value ([4]; E:T ratio 1:3, dose 20 nM)?
The value was 65%.

What about the “Mean tumor cell death (%)” value ([4]; E:T ratio 1:3, dose 40 nM) of the same compound?
The value was 67.4%.

What about the “Mean tumor cell death (%)” value ([4]; E:T ratio 1:3, dose 60 nM) of the same compound?
The value was 59%.

What about the “Mean tumor cell death (%)” value ([4]; E:T ratio 1:3, dose 80 nM) of the same compound?
Its value is 55%.

And the “Mean tumor cell death (%)” value ([4]; E:T ratio 1:3, dose 100 nM)?
The value was 31.1%.

And the “Mean tumor cell death (%)” value ([4]; E:T ratio 1:9, dose 10 nM)?
The value was 25.4%.

What about the “Mean tumor cell death (%)” value ([4]; E:T ratio 1:9, dose 20 nM) of the same compound?
Its value is 27.6%.

And the “Mean tumor cell death (%)” value ([4]; E:T ratio 1:9, dose 40 nM)?
The value was 26.1%.

And the “Mean tumor cell death (%)” value ([4]; E:T ratio 1:9, dose 60 nM)?
The value was 21.1%.

And the “Mean tumor cell death (%)” value ([4]; E:T ratio 1:9, dose 80 nM)?
The value was 3.97%.

What about the “Mean tumor cell death (%)” value ([4]; E:T ratio 1:9, dose 100 nM) of the same compound?
The value was 5.5%.
